Where a name gives a salt, the structure may show the parent alone.
How the values were obtained:
ACHN = assay: Cytotoxicity against human ACHN cells assessed as cell growth inhibition incubated for 48 hrs by SRB method; format: functional, cell-based
BV-2 [1] = assay: Anti-neuroinflammatory activity in mouse BV-2 cells assessed as inhibition of LPS-induced NO production pretreated for 1 hr followed by LPS addition measured after 24 hrs by Griess reagent based assay; format: functional, cell-based
HCT-15 = assay: Cytotoxicity against human HCT-15 cells assessed as cell growth inhibition incubated for 48 hrs by SRB method; format: functional, cell-based; details: HCT-15, 48 h
NCI-H23 = assay: Cytotoxicity against human NCI-H23 cells assessed as cell growth inhibition incubated for 48 hrs by SRB method; format: functional, cell-based; details: NCI-H23, 48 h
PC-3 = assay: Cytotoxicity against human PC-3 cells assessed as cell growth inhibition incubated for 48 hrs by SRB method; format: functional, cell-based; details: PC-3, 48 h
NUGC-3 = assay: Cytotoxicity against human NUGC-3 cells assessed as cell growth inhibition incubated for 48 hrs by SRB method; format: functional, cell-based; details: NUGC-3, 48 h
MDA-MB-231 = assay: Cytotoxicity against human MDA-MB-231 cells assessed as cell growth inhibition incubated for 48 hrs by SRB method; format: functional, cell-based; details: MDA-MB-231, 48 h
BV-2 [2] = assay: Cytotoxicity against LPS induced mouse BV-2 cells assessed as reduction in cell viability at >1 uM pretreated for 1 hr followed by LPS addition measured after 24 hrs by MTT assay; format: toxicity, cell-based; details: bv-2, 25 h

| Compound | IC50 (ACHN) [µM] | IC50 (BV-2 [1]) [µM] | IC50 (HCT-15) [µM] | IC50 (NCI-H23) [µM] | IC50 (PC-3) [µM] | IC50 (NUGC-3) [µM] | IC50 (MDA-MB-231) [µM] | Activity (BV-2 [2]) |
| --- | --- | --- | --- | --- | --- | --- | --- | --- |
| C[C@@H](O)c1cccc2nc3c(C(=O)O)cccc3nc12 | > 10 | 16 | > 10 | > 10 | > 10 | > 10 | > 10 | – |
| C[C@H](c1cccc2nc3c(C(=O)O)cccc3nc12)c1ccc(C(=O)O)c2nc3cccc([C@@H](C)O)c3nc12 | > 10 | 170 | > 10 | > 10 | > 10 | > 10 | > 10 | – |
| CC(=O)c1cccc2nc3c(C(=O)O[C@H](C)c4cccc5nc6c(C(=O)O)cccc6nc45)cccc3nc12 | 0.072 | – | 0.06 | 0.043 | 0.047 | 0.035 | 0.052 | – |
| C[C@@H](c1cccc2nc3c(C(=O)O)cccc3nc12)c1ccc(C(=O)O)c2nc3cccc([C@@H](C)O)c3nc12 | > 10 | 90 | > 10 | > 10 | > 10 | > 10 | > 10 | – |
| CC(=O)c1cccc2nc3c(C(=O)O)ccc([C@H](C)c4cccc5nc6c(C(=O)O)cccc6nc45)c3nc12 | > 10 | 35 | > 10 | > 10 | > 10 | > 10 | > 10 | – |
| C[C@@H](O)c1cccc2nc3c(C(=O)O[C@H](C)c4cccc5nc6c(C(=O)O)cccc6nc45)cccc3nc12 | 0.014 | 0.3 | 0.01 | 0.01 | 0.01 | 0.0077 | 0.01 | Toxic |
| C[C@@H](OC(=O)c1ccccc1N)c1cccc2nc3c(C(=O)O)cccc3nc12 | > 10 | – | > 10 | > 10 | > 10 | > 10 | > 10 | – |
| C[C@@H](c1cc(C(=O)O)c2nc3cccc([C@@H](C)O)c3nc2c1)c1cccc2nc3c(C(=O)O)cccc3nc12 | > 10 | – | > 10 | > 10 | > 10 | > 10 | > 10 | – |
| C[C@H](c1cc([C@@H](C)O)c2nc3cccc(C(=O)O)c3nc2c1)c1cccc2nc3c(C(=O)O)cccc3nc12 | > 10 | – | > 10 | > 10 | > 10 | > 10 | > 10 | – |
| COc1cccc2c1C(=O)c1c(O)c3c(c(O)c1C2=O)C[C@@](O)(C(=O)CO)C[C@@H]3O[C@H]1C[C@H](N)[C@H](O)[C@H](C)O1 [DOXORUBICIN HYDROCHLORIDE] | 0.17 | – | 0.17 | 0.16 | – | 0.15 | 0.15 | – |

From ChEMBL document CHEMBL5143633, “Isolation, Structure Determination, and Semisynthesis of Diphenazine Compounds from a Deep-Sea-Derived Strain of the Fungus Cystobasidium laryngis and Their Biological Activities” (J Nat Prod, 2022)
